Source: ChEMBL document CHEMBL3045122, “Synthesis, in vitro antimicrobial, antiproliferative, and QSAR studies of N-(substituted phenyl)-2/4-(1H-indol-3-ylazo)-benzamides” (Med Chem Res, 2013)

Key:
[1] = system: HCT-116; assay: Cytotoxicity against Homo sapiens (human) HCT116 cells assessed as growth inhibition after 72 hr by MTT assay; type: functional, cell-based
[2] = system: MCF7; assay: Cytotoxicity against Homo sapiens (human) MCF7 cells assessed as growth inhibition after 72 hr by MTT assay; type: functional, cell-based
[3] = system: Bacillus subtilis; assay: Antibacterial activity against Bacillus subtilis assessed as growth inhibition after 24 hr by tube dilution method; type: functional
[4] = system: Aspergillus niger; assay: Antifungal activity against Aspergillus niger assessed as growth inhibition after 7 days by tube dilution method; type: functional
[5] = system: Aspergillus niger; assay: Fungicidal activity against Aspergillus niger; type: functional
[6] = system: Staphylococcus aureus; assay: Ratio of MBC to MIC for Staphylococcus aureus; type: functional
[7] = system: Escherichia coli; assay: Antibacterial activity against Escherichia coli assessed as growth inhibition after 24 hr by tube dilution method; type: functional
[8] = system: Candida albicans; assay: Fungicidal activity against Candida albicans; type: functional
[9] = system: Bacillus subtilis; assay: Ratio of MBC to MIC for Bacillus subtilis; type: functional
[10] = system: Aspergillus niger; assay: Ratio of MFC to MIC for Aspergillus niger; type: functional
[11] = system: Candida albicans; assay: Antifungal activity against Candida albicans assessed as growth inhibition after 48 hr by tube dilution method; type: functional
[12] = system: Staphylococcus aureus; assay: Bactericidal activity against Staphylococcus aureus; type: functional
[13] = system: Staphylococcus aureus; assay: Antibacterial activity against Staphylococcus aureus assessed as growth inhibition after 24 hr by tube dilution method; type: functional
[14] = system: Bacillus subtilis; assay: Bactericidal activity against Bacillus subtilis; type: functional
[15] = system: Candida albicans; assay: Ratio of MFC to MIC for Candida albicans; type: functional
[16] = system: P388; assay: Cytotoxicity against Mus musculus (mouse) P388 cells assessed as growth inhibition after 72 hr by MTT assay; type: functional, cell-based
[17] = system: Escherichia coli; assay: Ratio of MBC to MIC for Escherichia coli; type: functional
[18] = system: Escherichia coli; assay: Bactericidal activity against Escherichia coli; type: functional
[19] = system: P388; assay: Ratio of 5-Fluorouracil IC50 to compound IC50 for Mus musculus (mouse) P388 cells; type: functional
[20] = system: HCT-116; assay: Ratio of 5-Fluorouracil IC50 to compound IC50 for Homo sapiens (human) HCT116 cells; type: functional

SMILES	IC50 [1] [uM/ml]	IC50 [2] [uM/ml]	-logMIC [3]	-logMIC [4]	MFC [5] [uM/ml]	Ratio [6]	-logMIC [7]	MFC [8] [uM/ml]	Ratio [9]	Ratio [10]	-logMIC [11]	MBC [12] [uM/ml]	-logMIC [13]	MBC [14] [uM/ml]	Ratio [15]	IC50 [16]	Ratio [17]	MBC [18] [uM/ml]	Ratio IC50 [19]	Ratio IC50 [20]
Cc1cccc(NC(=O)c2ccc(/N=N\c3c[nH]c4ccccc34)cc2)c1	0.0989	0.0734	1.75	1.45	0.04	3	1.75	0.04	3	3	1.45	>0.14	1.45	>0.14	3	0.0003 uM/ml	3	>0.14	73	
O=C(Nc1cccc([N+](=O)[O-])c1)c1ccc(/N=N\c2c[nH]c3ccccc23)cc1	0.0701	0.0519	1.79	1.49	0.03	3	1.49	0.06	3	3	1.49	>0.13	1.19	>0.13	3	0.0519 uM/ml	3	>0.13		
Cc1ccc(NC(=O)c2ccc(/N=N\c3c[nH]c4ccccc34)cc2)c(C)c1	0.0761	0.087	1.47	1.47	0.03	3	1.47	0.14	3	3	1.47	>0.14	1.47	>0.14	3	0.1902 uM/ml	3	>0.14		
O=C(Nc1cccc(Cl)c1)c1ccc(/N=N\c2c[nH]c3ccccc23)cc1	0.08	0.0827	1.48	1.48	0.03	3	1.48	>0.13	3	3	1.48	>0.13	1.48	>0.13	3	0.2667 uM/ml	3	>0.13		
O=C(Nc1ccccc1F)c1ccc(/N=N\c2c[nH]c3ccccc23)cc1	0.5587	0.0838	1.46	1.46	0.03	3	1.46	0.07	3	3	1.46	>0.14	1.46	>0.14	3	0.1061 uM/ml	3	>0.14		
O=C(Nc1ccc([N+](=O)[O-])cc1)c1ccc(/N=N\c2c[nH]c3ccccc23)cc1	0.1558	0.0545	1.49	1.49	0.03	3	1.79	0.13	3	3	1.49	>0.13	1.79	>0.13	3	0.0112 uM/ml	3	>0.13		
O=C(Nc1ccc(Cl)cc1)c1ccc(/N=N\c2c[nH]c3ccccc23)cc1	0.1867	0.1067	1.48	1.48	0.13	3	1.48	>0.13	3	3	1.48	>0.13	1.48	>0.13	3	0.08 uM/ml	3	>0.13		
O=C(Nc1ccccc1)c1ccc(/N=N\c2c[nH]c3ccccc23)cc1	0.1029	0.1471	1.44	1.44	0.07	3	1.44	>0.15	3	3	1.44	>0.15	1.44	>0.15	3	Not Active	3	>0.15		
Cc1ccc(NC(=O)c2ccc(/N=N\c3c[nH]c4ccccc34)cc2)cc1	0.0254	0.0424	1.45	1.45	0.04	3	1.45	>0.14	3	3	1.45	>0.14	1.45	>0.14	3	0.0003 uM/ml	3	>0.14	73	1.8
Cc1cccc(NC(=O)c2ccc(/N=N\c3c[nH]c4ccccc34)cc2)c1C	0.2717	0.106	1.47	1.47	0.03	3	1.47	>0.14	3	3	1.47	>0.14	1.77	>0.14	3	0.0516 uM/ml	3	>0.14		
O=C(Nc1ccccc1[N+](=O)[O-])c1ccc(/N=N\c2c[nH]c3ccccc23)cc1	0.2078	0.1013	1.79	1.49	0.03	3	1.49	>0.13	3	3	1.49	>0.13	1.49	>0.13	3	0.0779 uM/ml	3	>0.13		
O=C(Nc1ccccc1Cl)c1ccc(/N=N\c2c[nH]c3ccccc23)cc1	0.12	0.112	1.48	1.48	0.03	3	1.78	>0.13	3	3	1.48	>0.13	1.18	>0.13	3	Not Active	3	>0.13		
